Data on five compounds can be found in patent US5516897A, “Monoazo reactive dyes and solutions thereof” (Zeneca Limited, priority 1992, dated 1996).

The series is described as follows: solubility in water. The note with it: for solubility in water: temperature not stated. Format: physicochemical. An excerpt: The concentrated solution was desalinated in a visking tubing placed in distilled water and the water replaced periodically until no further chloride ions could be detected using […] and the product precipitated by addition of ethanol to give 46 g of the title product (80% yield) having a lambda max at 417 nm and very high solubility in water.
The higher solubility of C1 compared with D1 and D2 means that more C1 can be prepared in a given vessel than for D1 or D2.

For the compound `CCN(c1nc(Cl)nc(Nc2ccc(N=Nc3cc4c(S(=O)(=O)O)cc(S(=O)(=O)O)cc4cc3S(=O)(=O)O)c(NC(N)=O)c2)n1)c1cc(S(=O)(=O)O)ccc1C` [Example 1], the solubility in water result is given as “very high”.
Same read-out and setting: then `CCN(c1nc(Nc2ccc(N=Nc3cc4c(S(=O)(=O)O)cc(S(=O)(=O)[O-])cc4cc3S(=O)(=O)O)c(NC(N)=O)c2)nc(-[n+]2ccc(C(=O)O)cc2)n1)c1cc(S(=O)(=O)O)ccc1C` [Example 2], with “very high”; and `CC(C)N(c1cccc(S(=O)(=O)O)c1)c1nc(Cl)nc(Nc2ccc(N=Nc3cc4c(S(=O)(=O)O)cc(S(=O)(=O)O)cc4cc3S(=O)(=O)O)c(NC(N)=O)c2)n1` [Example 3], with “high”.
For the compound `CC(C)N(c1ccc(S(=O)(=O)O)cc1)c1nc(Cl)nc(Nc2ccc(N=Nc3cc4c(S(=O)(=O)O)cc(S(=O)(=O)O)cc4cc3S(=O)(=O)O)c(NC(N)=O)c2)n1` [Example 4], the “solubility in water at 20° C.” value (20° C.) is listed as “very high”.
Take `CCN(c1nc(Cl)nc(Nc2cc(NC(C)=O)c(N=Nc3cc(S(=O)(=O)O)c4cccc(S(=O)(=O)O)c4c3)cc2OC)n1)c1cc(S(=O)(=O)O)ccc1C` [Example 5]: the “solubility in water at 25° C.” value (25° C.) was “good”.
